Laboratory results as given in ChEMBL document CHEMBL4038308, “Lipophosphonoxins II: Design, Synthesis, and Properties of Novel Broad Spectrum Antibacterial Agents” (J Med Chem, 2017).
≈ marks a conversion by molar mass, not a printed value. Calls of active or inactive are those of the source. No cut-off for these calls is given here.

What was measured:
Escherichia coli [1] = assay: Bactericidal activity against Escherichia coli CCM 3954 assessed as reduction in bacterial count at 6.25 to 25 mg/L after 45 mins by time kill assay; type: functional
Staphylococcus aureus [2] = assay: Induction of cytoplasmic membrane permeabilization in Staphylococcus aureus CCM 4223 assessed as increase in propidium iodide fluorescence intensity at 5 mg/L by spectrofluorometric analysis; type: functional
HepG2 [3] = assay: Cytotoxicity against human HepG2 cells assessed as disruption of cell membrane integrity after 4 hrs by CytoTox-ONE-based assay; conditions: hepg2, 4 h
[4] = system: Stenotrophomonas maltophilia; assay: Antibacterial activity against Stenotrophomonas maltophilia S2-23 after 24 hrs by microdilution method; type: functional; conditions: S2-23, 24 h
HepG2 [5] = assay: Induction of apoptosis in human HepG2 cells assessed as caspase 3/7 activation up to 80 mg/L after 4 hrs by caspase-Glo 3/7 luminescent assay; type: cell-based; conditions: hepg2, 4 h
Pseudomonas aeruginosa [6] = assay: Induction of cytoplasmic membrane permeabilization in Pseudomonas aeruginosa CCM 3955 assessed as increase in propidium iodide fluorescence intensity at 5 mg/L by spectrofluorometric analysis; type: functional
Bacillus subtilis [7] = assay: Antibacterial activity against Bacillus subtilis assessed as inhibition of plasma membrane lipids synthesis at 2.5 mg/L after 50 mins by [3H]-sodium acetate incorporation assay; type: functional
[8] = system: Staphylococcus epidermidis; assay: Induction of cytoplasmic membrane permeabilization in Staphylococcus epidermidis 8700/B assessed as increase in propidium iodide fluorescence intensity at 5 mg/L by spectrofluorometric analysis; type: functional
Burkholderia multivorans = assay: Antibacterial activity against Burkholderia multivorans after 24 hrs by microdilution method; type: functional
[9] = Chemical stability of compound at 50 to 500 mg/L at pH 5 after 24 hrs at room temperature by LC-MS analysis; type: physicochemical; conditions: buffer, pH 5, 24 h
TERT-RPE1 [10] = assay: Cytotoxicity against human RPE1 cells assessed as reduction in cell viability after 48 hrs by ATPlite reagent based assay; conditions: tert-rpe1, 48 h
Mus musculus = assay: Toxicity in ICR mouse assessed as mortality up to 2000 mg/kg, po administered as single dose measured for 2 weeks; type: organism-based; conditions: in vivo, 336 h
Enterococcus faecium = assay: Antibacterial activity against vancomycin-resistant Enterococcus faecium 419/ana clinical isolates after 24 hrs by microdilution method; type: functional
HepG2 [11] = assay: Cytotoxicity against human HepG2 cells assessed as reduction in cell viability after 48 hrs by ATPlite reagent based assay; conditions: hepg2, 48 h
Escherichia coli [12] = assay: Bactericidal activity against Escherichia coli CCM 3954 assessed as bacterial count at 25 mg/L up to 6 hrs by time kill assay; type: functional
[13] = Chemical stability of compound at 50 to 500 mg/L at pH 8.8 after 24 hrs at room temperature by LC-MS analysis; type: physicochemical; conditions: buffer, pH 8.8, 24 h
Bacillus subtilis [14] = assay: Antibacterial activity against Bacillus subtilis assessed as inhibition of protein synthesis at 2.5 mg/L after 50 mins by [35S]-methionine incorporation assay; type: functional
Escherichia coli [15] = assay: Induction of cytoplasmic membrane permeabilization in Escherichia coli CCM 3954 assessed as increase in propidium iodide fluorescence intensity at 5 mg/L by spectrofluorometric analysis; type: functional
Bacillus subtilis [16] = assay: Antibacterial activity against Bacillus subtilis assessed as rupture of cell envelope at 10 mg/L after 10 mins by scanning electron microscopic analysis; type: functional
[17] = system: Staphylococcus epidermidis; assay: Antibacterial activity against Staphylococcus epidermidis 8700/B after 24 hrs by microdilution method; type: functional
[18] = Chemical stability of compound at 50 to 500 mg/L at pH 0.18 after 24 hrs at room temperature by LC-MS analysis; type: physicochemical; conditions: buffer, pH 0.18, 24 h
Oryctolagus cuniculus [19] = assay: Toxicity in topically dosed rabbit assessed as skin irritation by measuring behavioral abnormalities measured up to 7 days post dose; type: organism-based; conditions: in vivo, topical_or_ocular, 168 h
TERT-RPE1 [20] = assay: Induction of apoptosis in human RPE1 cells assessed as caspase 3/7 activation up to 80 mg/L after 4 hrs by caspase-Glo 3/7 luminescent assay; type: cell-based; conditions: tert-rpe1, 4 h
Oryctolagus cuniculus [21] = assay: Toxicity in topically applied rabbit assessed as skin irritation measured by measuring physiological abnormalities up to 7 days post dose; conditions: in vivo, topical_or_ocular, 168 h
Pseudomonas aeruginosa [22] = assay: Antibacterial activity against Pseudomonas aeruginosa CCM 3955 after 24 hrs by microdilution method; type: functional; conditions: CCM 3955, 24 h
[23] = Chemical stability of compound at 50 to 500 mg/L at pH 8.8 after 24 hrs at 37 degC by LC-MS analysis; type: physicochemical; conditions: buffer, pH 8.8, 24 h
Bacillus subtilis [24] = assay: Antibacterial activity against Bacillus subtilis assessed as inhibition of DNA synthesis at 2.5 mg/L after 50 mins by [3H]thymidine incorporation assay; type: functional
Escherichia coli [25] = assay: Antibacterial activity against Escherichia coli 16702 after 24 hrs by microdilution method; type: functional; conditions: Escherichia coli, 16702, 24 h
Bacillus subtilis [26] = assay: Antibacterial activity against Bacillus subtilis assessed as inhibition of RNA synthesis at 2.5 mg/L after 50 mins by [3H]-uridine incorporation assay; type: functional
[27] = Chemical stability of compound at 50 to 500 mg/L at pH 0.18 after 24 hrs at 37 degC by LC-MS analysis; type: physicochemical; conditions: buffer, pH 0.18, 24 h
TERT-RPE1 [28] = assay: Cytotoxicity against human RPE1 cells assessed as disruption of cell membrane integrity at >80 mg/L after 4 hrs by CytoTox-ONE-based assay; conditions: tert-rpe1, 4 h
Escherichia coli [29] = assay: Antibacterial activity against Escherichia coli CCM 3954 after 24 hrs by microdilution method; type: functional; conditions: CCM 3954, 24 h
Oryctolagus cuniculus [30] = assay: Toxicity in topically applied rabbit assessed as skin irritation measured up to 14 days post dose; conditions: in vivo, topical_or_ocular, 336 h
Staphylococcus aureus [31] = assay: Antibacterial activity against methicillin-resistant Staphylococcus aureus 4591 clinical isolates after 24 hrs by microdilution method; type: functional; conditions: Staphylococcus aureus, 4591, 24 h
Enterococcus faecalis = assay: Antibacterial activity against Enterococcus faecalis CCM 4224 after 24 hrs by microdilution method; type: functional; conditions: CCM 4224, 24 h
[32] = Pore forming activity across black lipid bilayer membranes assessed as induction of variation in membrane current by measuring pore conductance at 5 ug/ml
[33] = Apparent permeability across apical to basolateral side in human Caco2 cells at 200 uM after 3 hrs by LC-MS analysis; type: ADME, cell-based; conditions: caco-2, 3 h
[34] = Chemical stability of compound at 50 to 500 mg/L at pH 5 after 24 hrs at 37 degC by LC-MS analysis; type: physicochemical; conditions: buffer, pH 5, 24 h
Staphylococcus aureus [35] = assay: Bactericidal activity against Staphylococcus aureus CCM 4223 assessed as reduction in bacterial count at 6.25 to 25 mg/L after 15 mins by time kill assay; type: functional
Staphylococcus aureus [36] = assay: Bactericidal activity against Staphylococcus aureus CCM 4223 assessed as reduction in bacterial count at 25 mg/L after 5 hrs by time kill assay; type: functional
Bacillus subtilis [37] = assay: Antibacterial activity against Bacillus subtilis assessed as inhibition of peptidoglycan synthesis at 2.5 mg/L after 50 mins by [3H]-N-acetylglucosamine incorporation assay; type: functional
Staphylococcus aureus [38] = assay: Bactericidal activity against Staphylococcus aureus CCM 4223 assessed as reduction in bacterial count at 12.5 mg/L after 6 hrs by time kill assay; type: functional

In the case of `CCCCCCCCCCCCCCOP(=O)(CCN(CCCN)CCCN)OC[C@H]1O[C@@H](n2ccc(=O)[nH]c2=O)[C@H](O)[C@@H]1O` (some centres not stated), the Activity (Escherichia coli [1]) is reported as “Active”, the Activity (Staphylococcus aureus [2]) is reported as “Active” and the Activity (HepG2 [3]) is reported as “Non-Toxic”. The MIC [4] was 12.5 µg/mL (≈ 18.9 µM), the Activity (HepG2 [5]) was “Non-Toxic” and the Activity (Pseudomonas aeruginosa [6]) was “Active”. The inhibition (Bacillus subtilis [7]) was “inactive”, the Activity [8] was “Active” and the MIC (Burkholderia multivorans) was 50 µg/mL (≈ 75.5 µM). The Stability [9] was “Stable”, the Activity (TERT-RPE1 [10]) was 43 mg/L and the Activity (Mus musculus) was “Non-Toxic”. It also gave an MIC (Enterococcus faecium) of 100 µg/mL (≈ 151 µM), an Activity (HepG2 [11]) of 40.3 mg/L and an Activity (Escherichia coli [12]) of 0. For the same molecule, the Stability [13] was “Stable”, the inhibition (Bacillus subtilis [14]) was “inactive” and the Activity (Escherichia coli [15]) was “Active”. The Activity (Bacillus subtilis [16]) was “Active”, the MIC [17] was 1.56 µg/mL (≈ 2.36 µM) and the Stability [18] was “Stable”. For the same molecule, the Activity (Oryctolagus cuniculus [19]) was “Non-Toxic”, the Activity (TERT-RPE1 [20]) was “Non-Toxic” and the Activity (Oryctolagus cuniculus [21]) was “Non-Toxic”. For the same molecule, the MIC (Pseudomonas aeruginosa [22]) was 0.78 µg/mL (≈ 1.18 µM), the Stability [23] was “Stable” and the inhibition (Bacillus subtilis [24]) was “inactive”. For the same molecule, the MIC (Escherichia coli [25]) was 3.13 µg/mL (≈ 4.73 µM), the inhibition (Bacillus subtilis [26]) was “inactive” and the Stability [27] was “Stable”. The Activity (TERT-RPE1 [28]) was “Non-Toxic”, the MIC (Escherichia coli [29]) was 6.25 µg/mL (≈ 9.44 µM) and the Activity (Oryctolagus cuniculus [30]) was “Non-Toxic”. It also gave an MIC (Staphylococcus aureus [31]) of 6.25 µg/mL (≈ 9.44 µM), an MIC (Enterococcus faecalis) of 25 µg/mL (≈ 37.8 µM) and an Activity [32] of 73 to 151 pS. The permeability [33] was “Impermeable”, the Stability [34] was “Stable” and the Activity (Staphylococcus aureus [35]) was “Active”. For the same molecule, the Activity (Staphylococcus aureus [36]) was “Active”, the inhibition (Bacillus subtilis [37]) was “inactive” and the Activity (Staphylococcus aureus [38]) was “Active”.
